# Assay results published in the supplement of paper PMC10307832.
# Tests used:
# Experiment in all cases: relative viability (nuclei count vs DMSO), 5 days (fraction); higher = more cells survive
# [1] = compound: CCN1C(=O)C2=CC(=C(N=C2N(C1=O)C3CC3)N)C(=O)N + Cc1nc(NC(=O)N2CCC[C@H]2C(N)=O)sc1-c1ccnc(C(C)(C)C(F)(F)F)c1 [Alpelisib] (partner 2 µM)
# In short: (§1)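 Lung cancer cell lines in 1536-well plates were dosed by pin tool the day after seeding, either with one drug alone or with a fixed anchor-drug dose plus five library-drug doses (not always all listed) in √10 steps. After 5 days, cells were fixed and their nuclei stained in one step (final 0.05% Triton X-100, 1% formaldehyde, 1 ug/ml Hoechst), then counted on 4× images. Relative viability is the nuclei count in treated wells divided by that in vehicle wells. Values are medians of duplicate plates.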
# [2] = compound: CCN1C(=O)C2=CC(=C(N=C2N(C1=O)C3CC3)N)C(=O)N + O=C(c1cc(Cc2n[nH]c(=O)c3ccccc23)ccc1F)N1CCN(C(=O)C2CC2)CC1 [Olaparib] (partner 8 µM)
# In short: as §1
# [3] = compound: CCN1C(=O)C2=CC(=C(N=C2N(C1=O)C3CC3)N)C(=O)N + Nc1nc2[nH]cc(CCc3ccc(C(=O)N[C@@H](CCC(=O)O)C(=O)O)cc3)c2c(=O)[nH]1 [Pemetrexed] (partner 0.2 µM)
# In short: as §1
# [4] = compound: CCN1C(=O)C2=CC(=C(N=C2N(C1=O)C3CC3)N)C(=O)N + Nc1ncn([C@H]2C[C@H](O)[C@@H](CO)O2)c(=O)n1 [Decitabine] (partner 2 µM)
# In short: as §1
# [5] = compound: CCN1C(=O)C2=CC(=C(N=C2N(C1=O)C3CC3)N)C(=O)N + O=C(CCCCCCC(=O)Nc1ccccc1)NO [Vorinostat] (partner 1 µM)
# In short: as §1
Cell Line,relative viability ([1]; first compound 0.253 µM),relative viability ([1]; first compound 0.8 µM),relative viability ([1]; first compound 2.53 µM),relative viability ([1]; first compound 8 µM),relative viability ([2]; first compound 0.253 µM),relative viability ([2]; first compound 0.8 µM),relative viability ([2]; first compound 2.53 µM),relative viability ([2]; first compound 8 µM),relative viability ([3]; first compound 0.253 µM),relative viability ([3]; first compound 0.8 µM),relative viability ([3]; first compound 2.53 µM),relative viability ([3]; first compound 8 µM),relative viability ([4]; first compound 0.253 µM),relative viability ([4]; first compound 0.8 µM),relative viability ([4]; first compound 2.53 µM),relative viability ([4]; first compound 8 µM),relative viability ([5]; first compound 0.253 µM),relative viability ([5]; first compound 0.8 µM),relative viability ([5]; first compound 2.53 µM),relative viability ([5]; first compound 8 µM)
UMC-11,1.09,0.942,0.863,1.07,0.376,0.337,0.312,0.365,0.867,0.846,0.761,0.845,0.71,0.604,0.617,0.457,0.415,0.34,0.373,0.408
NCI-H1437,0.956,1.12,0.973,1.04,0.684,0.637,0.622,0.585,0.294,0.316,0.287,0.304,0.654,0.578,0.591,0.509,0.845,0.804,0.756,0.808
NCI-H1734,0.658,0.669,0.688,0.738,0.672,0.695,0.579,0.675,0.432,0.392,0.405,0.423,0.499,0.488,0.502,0.565,0.744,0.762,0.811,0.784
LK-2,0.761,1.36,1.3,1.13,0.641,0.706,0.575,0.596,0.3,0.286,0.303,0.301,0.249,0.31,0.317,0.277,0.286,0.377,0.307,0.302
HCC-15,0.921,0.959,0.873,0.986,0.749,0.774,0.651,0.725,0.231,0.221,0.2,0.235,0.596,0.663,0.624,0.603,0.885,0.785,0.869,0.815
HCC-366,0.442,0.505,0.456,0.468,0.351,0.361,0.361,0.37,0.167,0.17,0.155,0.163,0.294,0.346,0.341,0.284,0.363,0.384,0.297,0.277
NCI-H661,0.711,0.78,0.742,0.778,0.774,0.782,0.672,0.748,0.918,0.905,0.935,0.886,0.544,0.551,0.517,0.543,0.758,0.788,0.748,0.803
NCI-H2347,0.963,0.987,1.02,0.89,0.576,0.612,0.55,0.518,0.458,0.442,0.421,0.447,0.722,0.66,0.622,0.643,0.634,0.462,0.623,0.639
